Where two headings read alike, the source gives them in different places.
Assays:
[1] = target: T1, Orai1/STIM1 (Homo sapiens, UniProt Q96D31); assay: Fluorescence-based assay of store-operated calcium entry in Orai1/STIM1 stable cells; assay type: cell-based; conditions: HEK-293 cells stably expressing human STIM1 and Orai1, Peak-Basal signal, read-out: Orail/STIM1 (IC50, μmol)
T1 construct: expressed in transfected cells; host or cells: HEK-293
From the text: Fluorescence-based assays are used for screening the compounds described herein, such as compounds of Formulas (I), (II), (III), (IV) or (V) which modulate intracellular calcium.
A. Fluorescence-Based Assay of Store-Operated Calcium Entry in Orai1/STIM1 Stable Cells.
Cells stably expressing recombinant human STIM1 and Orai1 are generated by transfecting a human Orai1 expression plasmid (pcDNA3.1-Orai1-cmyc) into HEK-293 cells stably overexpressing human STIM1 (Roos et al. 2005 JCB 169(3): 435-445). Colonies of cells stably expressing both STIM1 and Orai1 proteins are selected and then subcloned by limiting dilution. Cells were cultured at 37° C./6% CO2 in complete medium with 10% FBS and appropriate selection markers.
The day prior to performing the assay Orai1/STIM1 stable cells are plated in 50 μL of complete medium at 90-95% confluence in a 384 well plate. Cells are grown at 37° C./6% CO2 overnight. On the day of the assay, 1.5 μM fluo-4-AM (Invitrogen) in complete medium is added to the cells, which are then incubated for 1 hour at RT. Cells are washed once in Ca^2+-free HBSS (Hank's buffered saline solution) and 35 μl of Ca^2+-free HBSS is added to each well. Test compounds are added to wells in a 10 μL Ca^2+-free HBSS solution, prepared at 4.5× the desired final concentration, and incubated for 30 minutes at RT. The initial baseline fluorescence signal is then measured with a FLIPR^384 (Molecular Devices) plate reader. Calcium entry is initiated by adding 5 μl of 10×CaCl2 (10 mM) in HBSS, and changes in cellular fluorescence are measured with the FLIPR^384 plate reader. In each well, the magnitude of the fluorescence signal as a result of calcium entry into the cell is determined by calculating the difference between the peak fluorescence signal measured after calcium addition and the initial baseline fluorescence signal (designated Peak-Basal). IC50 values are typically calculated as the concentration that inhibited 50% of the Peak-Basal signal.

[2] = system: RBL-2H3 cells; assay: Fluorescence-based assay of store-operated calcium entry in RBL-2H3 cells; assay type: cell-based; conditions: Rattus norvegicus, thapsigargin, Upslope, read-out: RBL-2H3 (IC50, μmol)
Protocol: B. Fluorescence-Based Assay of Store-Operated Calcium Entry in RBL-2H3 Cells.
RBL-2H3 cells are obtained from ATCC and maintained in complete medium with 10% FBS at 37° C./6% CO2.
The day prior to performing the assay, RBL-2H3 cells are plated in 50 μl of complete medium in a 384 well plate. Cells are grown at 37° C./6% CO2 overnight and grow to 50-60% confluence by the next day. On the assay day, 1.5 μM Fluo-4-AM dye (Invitrogen) in complete medium is added and incubated for 1 hour at RT. Cells are washed twice in Ca^2+-free HBSS buffer and 35 μL Ca^2+-free HBSS buffer is added to each well. 10 μL of a test compound prepared in a Ca^2+-free HBSS solution at 4.5× of the desired concentration is added to a well and incubated for 5 minutes at RT. 10 μL of thapsigargin prepared in a Ca^2+-free HBSS solution at 5.5× of the desired concentration (5.5 uM) is added to each well and incubated for an additional 25 minutes. The initial baseline fluorescence signal is measured with a FLIPR^384 (Molecular Devices) plate reader. 5 μL of 12× calcium in HBSS (12 mM) is added and changes in cellular fluorescence are measured with the FLIPR^384 plate reader. In each well, the change in the fluorescent signal as a function of time due to calcium entry into the cell is determined by calculating the difference between the fluorescent signal measured 7 seconds after calcium addition and the initial baseline fluorescence signal at time zero (t=0). This parameter is designated Upslope. The IC50 value is calculated as the concentration at which 50% of the Upslope is inhibited.

T1 sequence (Q96D31 whole entry): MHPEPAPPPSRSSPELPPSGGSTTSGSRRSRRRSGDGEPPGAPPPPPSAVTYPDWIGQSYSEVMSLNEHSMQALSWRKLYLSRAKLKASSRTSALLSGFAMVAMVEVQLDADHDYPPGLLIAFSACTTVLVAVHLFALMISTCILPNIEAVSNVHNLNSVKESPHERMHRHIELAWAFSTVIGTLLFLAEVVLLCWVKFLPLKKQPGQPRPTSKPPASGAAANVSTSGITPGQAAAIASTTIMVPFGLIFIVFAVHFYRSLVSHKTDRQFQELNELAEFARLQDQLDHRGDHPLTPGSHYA

Q: With Cn1nc(-c2nccs2)cc1-c1ccc(NC(=O)c2c(F)cccc2F)s1 [Compound 6, (2,6-difluorophenyl)-N-[5-[1-methyl-3-(1,3-thiazol-2-yl)pyrazol-5-yl](2-thienyl)]carboxamide] as the compound, how does the IC50 ([1]; Table IV) read?
A: The IC50 was < 600 nM.

Q: How did the IC50 ([1]; Table IV) turn out when Cn1nc(-c2nccs2)cc1-c1ccc(NC(=O)c2ccc(F)cc2F)s1 [Compound 7, (2,4-difluorophenyl)-N-[5-[1-methyl-3-(1,3-thiazol-2-yl)pyrazol-5-yl](2-thienyl)]carboxamide] was run?
A: Its IC50 is < 600 nM.

Q: Which IC50 ([1]; Table IV) does the source give for Cn1nc(-c2nccs2)cc1-c1ccc(NC(=O)c2c(F)cc(F)cc2F)s1 [Compound 10, (2,4,6-trifluorophenyl)-N-[5-[1-methyl-3-(1,3-thiazol-2-yl)pyrazol-5-yl](2-thienyl)]carboxamide] here?
A: Its IC50 is < 600 nM.

Q: With Cc1oc(C(F)(F)F)nc1-c1ccc(NC(=O)c2c(F)cccc2F)nc1 [Compound 14, 2,6-difluoro-N-(5-(5-methyl-2-(trifluoromethyl)oxazol-4-yl)pyridin-2-yl)benzamide] as the compound, how does the IC50 ([1]; Table III) read?
A: The IC50 was < 600 nM.

Q: CCn1nc(-c2nccs2)cc1-c1ccc(NC(=O)c2c(F)cccc2F)s1 [Compound 15] was tested. Which IC50 ([1]; Table IV) did it give?
A: The IC50 was 600 to 1200 nM.

Q: For Cc1ccccc1C(=O)Nc1ccc(-c2nc(C(F)(F)F)oc2C)cn1 [Compound 15], which IC50 ([1]; Table III) is on record?
A: Its IC50 is < 600 nM.

Q: With CCn1nc(-c2nccs2)cc1-c1ccc(NC(=O)c2c(F)cc(F)cc2F)s1 [Compound 16] as the compound, how does the IC50 ([1]; Table IV) read?
A: Its IC50 is 600 to 1200 nM.

Q: How did the IC50 ([1]; Table III) turn out when Cc1oc(C(F)(F)F)nc1-c1ccc(NC(=O)c2ccccc2F)nc1 [Compound 16] was run?
A: Its IC50 is < 600 nM.

Q: How did the IC50 ([1]; Table III) turn out when Cc1oc(C(F)(F)F)nc1-c1ccc(NC(=O)c2c(F)cncc2F)nc1 [Compound 17, 3,5-difluoro-N-(5-(5-methyl-2-(trifluoromethyl)oxazol-4-yl)pyridin-2-yl)isonicotinamide] was run?
A: Its IC50 is < 600 nM.

Q: For Cc1oc(C(F)(F)F)nc1-c1ccc(NC(=O)c2cccc(F)c2C)nc1 [Compound 19, 3-fluoro-2-methyl-N-(5-(5-methyl-2-(trifluoromethyl)oxazol-4-yl)pyridin-2-yl)benzamide], which IC50 ([1]; Table III) is on record?
A: The IC50 was < 600 nM.

Q: Which results are given for Cn1nc(-c2ccccc2F)cc1-c1ccc(NC(=O)c2c(F)cc(F)cc2F)s1 [Compound 20]?
A: IC50 ([1]; Table IV): < 600 nM; IC50 ([2]; Table IV): < 600 nM

Q: Which results are given for Cc1cccc(F)c1C(=O)Nc1ccc(-c2nc(C(F)(F)F)oc2C)cn1 [Compound 21]?
A: IC50 ([1]; Table III): < 600 nM; IC50 ([2]; Table III): < 600 nM

Q: Which results are given for Cn1nc(-c2ccccc2F)cc1-c1ccc(NC(=O)c2c(F)ccc(F)c2F)s1 [Compound 21]?
A: IC50 ([1]; Table IV): 600 to 1200 nM; IC50 ([2]; Table IV): 600 to 1200 nM

Q: Cn1nc(-c2ccccc2F)cc1-c1ccc(NC(=O)c2c(F)cccc2F)s1 [Compound 22] was tested. Which IC50 ([1]; Table IV) did it give?
A: The IC50 was < 600 nM.

Q: What about the IC50 ([2]; Table IV) of the same compound?
A: The IC50 was < 600 nM.

Q: For CCc1oc(C(F)(F)F)nc1-c1ccc(NC(=O)c2ccccc2F)nc1 [Compound 24, N-(5-(5-ethyl-2-(trifluoromethyl)oxazol-4-yl)pyridin-2-yl)-2-fluorobenzamide], which IC50 ([1]; Table III) is on record?
A: Its IC50 is < 600 nM.

Q: How did the IC50 ([1]; Table III) turn out when CCc1oc(C(F)(F)F)nc1-c1ccc(NC(=O)c2c(F)cccc2F)nc1 [Compound 25, N-(5-(5-ethyl-2-(trifluoromethyl)oxazol-4-yl)pyridin-2-yl)-2,6-difluorobenzamide] was run?
A: Its IC50 is < 600 nM.

Q: Cn1nc(-c2ccccn2)cc1-c1ccc(NC(=O)c2c(F)cc(F)cc2F)s1 [Compound 27, 2,4,6-trifluoro-N-(5-(1-methyl-3-(pyridin-2-yl)-1H-pyrazol-5-yl)thiophen-2-yl)benzamide] was tested. Which IC50 ([1]; Table IV) did it give?
A: Its IC50 is 600 to 1200 nM.

Q: For Cn1nc(-c2ccccn2)cc1-c1ccc(NC(=O)c2c(F)cccc2F)s1 [Compound 28, 2,6-difluoro-N-(5-(1-methyl-3-(pyridin-2-yl)-1H-pyrazol-5-yl)thiophen-2-yl)benzamide], which IC50 ([1]; Table IV) is on record?
A: The IC50 was < 600 nM.

Source: patent US9512116B2, “Compounds that modulate intracellular calcium” (CALCIMEDICA, INC., priority 2012, dated 2016)
